Measured values published in US5229413A, “Compositions containing indole-2-carboxylate compounds for treatment of CNS disorders” (G. D. Searle & Co., priority 1992, dated 1993).

Assays:
[1] = target: T1, strychnineinsensitive glycine recognition site (NMDA receptor-ion channel complex) (Rattus norvegicus, UniProt P35439); test: Glycine binding assay, [3H]glycine, synaptic plasma membranes; details: 10 nM [3H]glycine, pH 7.4, rat forebrain SPM; read-out: Ki apparent, Gly
T1 construct: Synaptic plasma membranes (SPM) were prepared from rat forebrain; from tissue; host or cells: rat forebrain synaptic plasma membranes
Experimental: Synaptic plasma membranes (SPM) were prepared from rat forebrain and stored as previously described [J. B. Monahan and J. Michel, J. Neurochem, 48, 1699-1708 (1987)]. Frozen membranes were thawed and diluted 1:20 with 0.04% triton X-100 in 50 mM tris/acetate (pH 7.4). Following incubation at 37° C. for 30 min., the SPM were collected by centrifugation at 95,000 X g for 15 min. The pellet was resuspended in 50 mM tris/acetate (pH 7.4, triton-free) and hand-homogenized five times. The membranes were again centrifuged as above. The pellet was washed two additional times with 50 mM tris/acetate (without homogenization) and centrifuged. The final pellet was resuspended with homogenization in 50 mM tris/acetate.
In the general receptor binding assay procedure, 10 nM [^3 H]glycine was added to the appropriate concentration of the test compounds and the assay initiated by the addition of 0.2-0.4 mg of ice cold SPM. The assay, which was done in 1.5 ml centrifuge tubes, was adjusted to a total volume of 1.0 ml with all additions being made in 50 mM tris/ acetate, pH 7.4 at 4° C. After a 10 minute incubation at 2° C., the samples were centrifuged for 15 min. at 12,000 g (4° C.) in a Beckman Microfuge 12. The supernatant was aspirated and the tube tip containing the pelleted membranes cut off and agitated in 0.5 ml of Beckman BTS-450 tissue solubilizer for a minimum of 6 hours at room temperature. Beckman MP scintillation cocktail (5 ml) containing 7 ml/liter acetic acid was then added and the samples counted on a Beckman LS 5800 liquid scintillation counter with automatic corrections for quenching and counting efficiency. […] The binding of [^3 H]glycine to the SPM was analyzed using Scatchard and Hill transformations and the Ki for other compounds was determined using logit-log analysis. Calculations and regression analysis were performed using templates developed for Lotus 123 as previously described [Pullan et al, Id.].

[2] = target: N-methyl-D-aspartate (NMDA) receptor site; test: Glutamate (NMDA) binding assay, L-[3H]glutamate, synaptic plasma membranes; details: L-[3H]glutamate 12.5 nM, pH 7.4, 0-4° C.; read-out: Ki apparent, NMDA
Experimental: The purpose of this assay is to determine the binding affinity of a compound of Formula I for the N-methyl-D-aspartate (NMDA) receptor site. This procedure was carried out as follows:
Synaptic plasma membranes (SPM) were prepared as previously described [Monahan, J. B. and Michel, J., "Identification and Characterization of an N-methyl-D-aspartate-specific L-[^3 H]glutamate Recognition Site in Synaptic Plasma Membranes, J. Neurochem., 48, 1699-1708 (1987)]. The SPM were stored at a concentration of 10-15 mg/ml in 0.32 M sucrose, 0.5 mM EDTA, 1 mM MgSO4, 5 mM Tris/SO4, pH 7.4, under liquid nitrogen. The identity and purity of the subcellular fractions were confirmed by both electron microscopy and marker enzymes. Protein concentrations were determined by using a modification of the method of Lowry [Ohnishi, S. T. and Barr, J. K., "A Simplified Method of Quantitating Proteins Using the Biuret and Phenol Reagents", Anal. Biochem., 86, 193-197 (1978)]. The SPM were thawed at room temperature, diluted twenty-fold with 50 mM Tris/acetate, pH 7.4, incubated at 37° C. for 30 minutes, and centrifuged at 100,000 g for 15 minutes. The dilution, incubation, and centrifugation was repeated a total of three times. This general method involved adding 12.5 nM of the L-[^3 H]glutamate radioligand to the appropriate concentration of the test compound and initiating the assay by the addition of ice cold SPM (0.2-0.45 mg). The binding assays were performed in 1.5 ml centrifuge tubes with the total volume adjusted to 1.0 ml. Additions of test compounds were made in 50 mM Tris/acetate, pH 7.4 and incubations were carried out at 0°-4° C. The incubation time for the NMDA binding assay was 10 minutes. To terminate the incubation, the samples were centrifuged for 15 minutes at 12,000 g and 4° C. in a Beckman Microfuge 12. The supernatant was aspirated and the pelleted membranes dissolved in Beckman Ready-Protein scintillation cocktail and the samples counted on a Beckman LS 5800 or 3801 liquid scintillation counter with automatic corrections for quenching and counting efficiency. Nonspecific binding was defined as the residual binding in the presence of 0.5 mM NMDA and was typically 15-25% of the total binding in the NMDA binding assay. Radioligand binding to the SPM was analyzed using Scatchard and Hill transformations and the Ki values of the compounds determined using logit-log transformations. Calculations and regression analysis were performed using templates developed for Lotus 1, 2, 3 as previously described [Pullan, L. M. "Automated Radioligand Receptor Binding Analysis with Templates for Lotus", Computer Appln. Biosci., 3 131 (1987)]. Binding results are reported in Table II for example compounds of the invention.

Ki [1]: 1300 nM
Ki [2]: > 100000 nM
Structure (SMILES): O=C(O)Cc1c(C(=O)O)[nH]c2cc(Cl)ccc12 [Compound No. 6, 2-carboxy-6-chloro-3-indoleacetic acid]
